Assay results published in patent US6759236B1, “Methods to enhance and confine expression of genes” (Research Development Foundation, priority 1998, dated 2004).

How the values were obtained:
[1] = cited from earlier work
[2] = system: H358 lung carcinoma cell line; test: Heat inducible, tetracycline feed-forward amplification of p53 expression (p53 immunostaining); type: cell-based; settings: 0.1 μg/ml added 6 hours after heating (45° C., 20 min); reached in 10 hours; cells cotransfected with ptet-splice p53 wt and HSP-tetp-TET-ON
Description: Six hours after heat shock, transfected cells were treated with different doses of doxycycline. At various time points after the addition of doxycycline, the cells were stained with a p53 antibody. For each point, the digital images of fifty immunostained cells were captured using a Nikon microscope. […] The plasmid “HSP-tetp-TET-ON” was constructed by replacing the CMV promoter in ptet-on (Clontech) with 300 bp of the human heat shock protein promoter and the tetp promoter. H358, a non-small cell lung carcinoma cell line with a homozygous deletion of p53, was grown in RPMI+10% fetal calf serum. 10^7 exponentially growing cells were cotransfected with 50 μg of “ptet-splice p53 wt” and 10 μg of “HSP-tetp-TET-ON” by electroporation using a BRL cell-Porator at 1180 μF and 240 V in 0.8 ml RPMI+6 mM glucose. Transfected cells were plated out at 25% confluence for 36 hours and then half of them were heat-shocked at 45° C. for twenty minutes. Six hours after heat shock, cells were treated with different doses of doxycycline. […] The amount of protein expressed in each cell is proportional to the intensity of staining which was expressed as I=1/T, where T is a measure of the transmitted light/unit area.

Structure (SMILES)	in vivo half-life ([1]; in vivo) [h]	amplification of p53 [2]	level at the end of 24 hours ([1]; end of 24 hours)	time at which peak plasma concentration is reached ([1]; humans, single oral dose) [h]	fraction removed via the kidney ([1]; humans)	fraction never absorbed and excreted in the active form ([1]; in vivo)
C[C@H]1c2cccc(O)c2C(=O)C2=C(O)[C@]3(O)C(=O)C(C(N)=O)=C(O)[C@@H](N(C)C)[C@@H]3[C@@H](O)[C@@H]21 [doxycycline]	18	more than 12 fold	–	–	–	–
CN(C)[C@@H]1C(O)=C(C(N)=O)C(=O)[C@@]2(O)C(O)=C3C(=O)c4c(O)cccc4[C@@](C)(O)[C@H]3[C@H](O)[C@@H]12 [oxytetracycline]	9	–	< 25 % of input	2 to 4	10-35%	10-30%
